Experimental data: patent US4124726A, “Anti-inflammatory agent of benzoyl derivative” (priority 1976, dated 1978)

How the values were obtained:
[1] = system: carragheenin edema; assay: acute carragheenin edema inhibition (anti-inflammatory effect); format: in vivo, male rats
Protocol: The edema was induced by subcutaneous injection of 1% carraheenin suspension in saline to the hind paws of male rats weighing 150 to 180 g. Each sample was orally given at the dosage of 100 mg/kg just before the inoculation of carragheenin.

[2] = in vivo; details: mouse, po
Protocol: Each sample was dissolved in olive oil or dispersed in 1% Tween 20 aqueous solution.

[3] = system: platelet aggregation; assay: blood platelet aggregation inhibition, collagen as inducer; format: cell-based; details: 10^-4 mole, rabbit PRP
Text: Blood platelet aggregation inhibiting effect
Male rabbits (Japan original white strain 3.3 to 3.6 kg) were anesthetized with Thiopental sodium and blood was sampled from the carotid artery.

[4] = system: painful stretchings induced by acetic acid; assay: acetic acid induced stretching (analgesic effect); details: 100 mg/kg oral, 0.7% acetic acid i.p., mice
Protocol: Each sample was orally administrated in the dosage of 100 mg/kg before injection of acetic acid.

Row | Compound | Anti-inf. ([1]; Table 2', 100 mg/kg oral, carragheenin edema, rats) | LD50 at 72 h [2] [mg/kg] | Blood platelet agg. inh. (percentage inhibition of platelet aggregation) [3] [%] | Analgesic (percentage diminution of times of painful stretchings) [4] [%] | Anti-inf. (edema inhibition rate) ([1]; 100 mg/kg oral, carragheenin edema, rats, Table 2) [%] | anti-inflammatory effect, inhibition rate (ED50), in words [1] | inhibition in vivo at 100 mg/kg ([1]; Rattus norvegicus, Table 2', 100 mg/kg oral, carragheenin edema, rats, read-out: Anti-inf.) [%]
1 | CCCCCCCCc1ccc(C(=O)c2cccc(I)c2)cc1 [compound 161] | 20.9 | 5000 | – | – | – | – | –
2 | CCCCCCCCCCc1ccc(C(=O)Cc2ccccc2)cc1 [compound 50] | – | > 10000 | 8.7 | – | – | – | –
3 | O=C(c1ccccc1)c1ccccc1C(=O)c1ccccc1 [compound 113] | – | 4000 | 25.8 | 14.5 | – | – | –
4 | COc1cc(OC)c(C(=O)c2ccccc2)c(OC)c1 [compound 76] | – | 2500 | 16.2 | 13.9 | – | – | –
5 | CCCCCCc1ccc(C(=O)c2c(C)cc(C)cc2C)cc1 [compound 103] | – | 500 | 29.5 | 14.2 | – | – | –
6 | CCc1ccc(C(=O)c2ccc(OC)cc2)cc1 [compound 107] | – | – | 20.3 | – | 20.3 | – | –
7 | CCCCCc1ccc(C(=O)c2ccc(O)cc2)cc1 [compound 105] | – | 4000 | 24.1 | 14.1 | – | – | –
8 | CCCCCCc1ccc(C(=O)c2ccccc2)cc1 [compound 24] | – | 6000 | 10.5 | 47.7 | – | – | –
9 | CCCc1ccc(C(=O)c2ccc(C)cc2)cc1 [compound 34] | – | 5000 | 16.4 | 12.1 | – | – | –
10 | O=C(c1ccc(F)cc1)c1ccc(F)cc1 [compound 114] | – | 2000 | 26.8 | 18.3 | – | – | –
11 | Cc1cc(C)c(C(=O)c2ccccc2)c(C)c1C [compound 79] | – | 1000 | 26.8 | 20.8 | – | – | –
12 | Cc1cc(C)c(C(=O)c2ccccc2F)c(C)c1 [Active ingredient No. 11, 2-Fluoro-2',4',6'-trimethyl-benzophenone] | – | – | – | – | – | especially high inhibition rate | –
13 | O=C(c1ccccc1)c1ccccc1F [Active ingredient No. 15, 2-fluorobenzophenone] | – | – | – | – | – | especially high inhibition rate | –
14 | CCCCOc1ccc(C(=O)c2c(C)cc(C)cc2C)cc1 [compound 94] | – | 500 | 27.9 | 15.8 | – | – | –
15 | CCCCCc1ccc(C(=O)c2ccccc2F)cc1 [Active ingredient No. 9, 2-Fluoro-4'-n-amyl-benzophenone] | – | – | – | – | – | especially high inhibition rate | –
16 | COc1ccc(C(=O)c2ccccc2)c(OC)c1 [compound 74] | – | 5000 | 18.5 | 24.2 | – | – | –
17 | CCCCCc1ccc(C(=O)c2ccc(CCC)cc2)cc1 [compound 99] | – | 5000 | 29.5 | 15.5 | – | – | –
18 | CCc1ccc(C(=O)c2ccccc2)cc1 [compound 66] | – | 2000 | 20.7 | 15.7 | – | – | –
19 | Cc1ccc(C(=O)c2ccccc2)cc1C [compound 72] | – | 1000 | 28.7 | 23.4 | – | – | –
20 | CCCCCCCCc1ccc(C(=O)c2ccccc2)cc1 [compound 26] | – | 10000 | 3.1 | 35.9 | – | – | –
21 | CC(C)Cc1ccc(C(=O)c2ccccc2)cc1 [compound 67] | – | 2000 | 18.5 | 19.1 | – | – | –

Row | Compound | Anti-inf. ([1]; Table 2', 100 mg/kg oral, carragheenin edema, rats) | LD50 at 72 h [2] [mg/kg] | Blood platelet agg. inh. (percentage inhibition of platelet aggregation) [3] [%] | Analgesic (percentage diminution of times of painful stretchings) [4] [%] | Anti-inf. (edema inhibition rate) ([1]; 100 mg/kg oral, carragheenin edema, rats, Table 2) [%] | anti-inflammatory effect, inhibition rate (ED50), in words [1] | inhibition in vivo at 100 mg/kg ([1]; Rattus norvegicus, Table 2', 100 mg/kg oral, carragheenin edema, rats, read-out: Anti-inf.) [%]
22 | CCc1ccc(C(=O)c2ccc(CC)cc2)cc1 [compound 106] | – | 1000 | 20.3 | 7.3 | – | – | –
23 | CCCCCc1ccc(C(=O)c2cccc(C)c2)cc1 [compound 89] | – | 10000 | 22.6 | 4.3 | – | – | –
24 | CCCCc1ccc(C(=O)c2ccccc2F)cc1 [Active ingredient No. 8, 4-n-butyl-2'-fluorobenzophenone] | – | – | – | – | – | especially high inhibition rate | –
25 | CCCCc1ccc(C(=O)c2ccc(OC)cc2)cc1 [compound 18] | – | 2000 | 9.3 | 20.1 | – | – | –
26 | CCCCCc1ccc(C(=O)c2ccccc2)cc1 [compound 23] | – | 5000 | 13.8 | 10.1 | – | – | –
27 | CCCC(C)c1ccc(C(=O)c2ccccc2F)cc1 (centres unmarked) [compound 121] | – | 3000 | – | – | – | – | 64.5
28 | CCCCc1ccc(C(=O)c2ccccc2)cc1 [Active ingredient No. 19, 4-n-butyl benzophenone] | – | – | – | – | – | especially high inhibition rate | –
29 | CCCCCCc1ccc(C(=O)c2ccc(C)cc2)cc1 [compound 36] | – | > 10000 | 15.1 | – | – | – | –
30 | CCc1ccc(C(=O)c2ccc(C)cc2)cc1 [compound 33] | – | 3000 | 20.5 | 15.5 | – | – | –
31 | CCCCCCc1ccc(C(=O)C(=O)c2ccccc2)cc1 [compound 56] | – | 10000 | 20.3 | 20.5 | – | – | –
32 | CCCCc1ccc(C(=O)Cc2ccccc2)cc1 [compound 39] | – | > 10000 | 2.6 | – | – | – | –
33 | CCCCc1ccc(C(=O)c2ccc(Cl)cc2)cc1 [compound 64] | – | 3000 | 28.5 | 6.6 | – | – | –
34 | CCCc1ccc(C(=O)c2ccc(O)cc2)cc1 [compound 104] | – | 3000 | 25.3 | 13.2 | – | – | –
35 | CCCCCCCc1ccc(C(=O)c2ccccc2)cc1 [compound 25] | – | 8000 | 7.8 | 48.6 | – | – | –
36 | CCCCOc1ccc(C(=O)c2ccccc2)cc1 [compound 42] | – | 3000 | 4.4 | 26.8 | – | – | –
37 | CCCc1ccc(C(=O)Cc2ccccc2)cc1 [compound 49] | – | 8000 | 28.5 | 18.2 | – | – | –
38 | Cc1ccc(C(=O)c2ccccc2)c(C)c1C [compound 31] | – | 1500 | 18.2 | 9.5 | – | – | –
39 | COc1ccc(OC)c(C(=O)c2ccccc2)c1 [compound 75] | – | 5000 | 30.7 | 22.0 | – | – | –
40 | CCCCCc1ccc(C(=O)c2ccccc2C)cc1 [compound 41] | – | 3000 | 14.4 | 14.6 | – | – | –
41 | CCCCc1ccc(C(=O)c2ccc(CCC)cc2)cc1 [compound 98] | – | 4000 | 28.3 | 16.4 | – | – | –
